Test results reported in patent US10842785B2, “PIM kinase inhibitors in combination with RNA splicing modulators/inhibitors for treatment of cancers” (UNIVERSITY OF MARYLAND, BALTIMORE COUNTY, priority 2016, dated 2020).

Key:
Assay type in all cases: cell-based
MOLM16 cells [1] = experiment: MTT assay (number of live cells), MOLM16 cells, single inhibitors and combination, Compusyn CI; conditions: 48 hours
Experimental: (§1) General experimental procedure: 10,000 (MOLM16) or 20,000 (EOL1) cells were seeded per well in 96-well plates. After culturing overnight, AZD1208 and/or Pladienolide B/SRPIN340 were added to wells in quadruplicates at 5 different concentrations. Different ratios between AZD1208 and Pladienolide B were tried in MOLM16 and EOL1 cells. At 48 hours the MTT metabolism indicative of number of live cells was measured by MTT assay (Promega, Cat: G4000). The resulting values were used to evaluate the Fa (fraction affected) values, which were plugged into the Compusyn software to calculate the combination indices (CI values) at ED50, ED75, ED90 and ED95 (ED—Effective dose of combination).
These values of drug dose and effect (fraction of cells affected by the treatment—FA values) were input into the Compusyn software to estimate the interaction between the two drugs.

EOL1 cells [2] = experiment: MTT assay (number of live cells), EOL1 cells, single inhibitors and combination, Compusyn CI; conditions: 48 hours
Experimental: as §1
To further confirm the finding in MOLM16 cells, it was tested whether the combination of AZD1208 and Pladienolide B is synergistic in another AML cell line—EOL1. Different ratios between AZD1208 and Pladienolide B were tested to identify the ideal ratio that provides maximum synergy.

MOLM16 cells [3] = experiment: Microarray (Affymetrix HTA 2.0) profiling of alternative splicing changes in MOLM16 cells; conditions: MOLM16, 1 μM, 6 hours
Experimental: Due to the large number of splicing factors as PIM substrates, a more globally spread regulation of splicing by PIM kinases was envisioned. As such, a microarray approach was chosen to profile the entire transcriptome for changes in alternative splicing, due to inhibition of PIM kinase activity. MOLM16 cells were treated with DMSO/AZD1208 (1 μM) (pan-PIM inhibitor) for 6 hours. This experiment was performed in triplicates and RNA was run on a bioanalyzer to confirm sample intergrity, as outline in FIG. 3. A similar procedure was used for analysis of both MOLM16 and EOL1 cells. After 1 μM AZD1208 treatment for 6 hours, cells were harvested, and total RNA was isolated. The RNA quality was confirmed using a bio-analyzer. High quality RNA samples were further processed and hybridized to Affymetrix HTA 2.0 microarrays. The results obtained were processed using Affymetrix expression console and transcriptome analysis console (TAC) software. […] Similar experiment was also performed for EOL1 cells. […] Each point represents a unique probe selection region and the splicing index values for MOLM16 (X axis) and EOL1 cells (Y axis) are shown. All the points in +X+Y and −X−Y quadrants are splicing changes consistent with directionality of the change. […] Microsoft Excel functions were used to identify the overlap between these lists of splicing changes. […]

EOL1 cells [4] = experiment: Microarray (Affymetrix HTA 2.0) profiling of alternative splicing changes in EOL1 cells
Experimental: Due to the large number of splicing factors as PIM substrates, a more globally spread regulation of splicing by PIM kinases was envisioned. As such, a microarray approach was chosen to profile the entire transcriptome for changes in alternative splicing, due to inhibition of PIM kinase activity. MOLM16 cells were treated with DMSO/AZD1208 (1 μM) (pan-PIM inhibitor) for 6 hours. This experiment was performed in triplicates and RNA was run on a bioanalyzer to confirm sample intergrity, as outline in FIG. 3. A similar procedure was used for analysis of both MOLM16 and EOL1 cells. After 1 μM AZD1208 treatment for 6 hours, cells were harvested, and total RNA was isolated. The RNA quality was confirmed using a bio-analyzer. High quality RNA samples were further processed and hybridized to Affymetrix HTA 2.0 microarrays. The results obtained were processed using Affymetrix expression console and transcriptome analysis console (TAC) software. […] Similar experiment was also performed for EOL1 cells. […] Each point represents a unique probe selection region and the splicing index values for MOLM16 (X axis) and EOL1 cells (Y axis) are shown. All the points in +X+Y and −X−Y quadrants are splicing changes consistent with directionality of the change. […] Microsoft Excel functions were used to identify the overlap between these lists of splicing changes. […] When the directionality of these changes was considered, it was noted that most of these changes were also consistantly in the same direction (all but 39 out of 2599).

MCL1 splice variants [5] = experiment: Taqman qRT-PCR for MCL1 splice variants in MOLM16 cells; conditions: MOLM16, 1 μM, 6 hrs
From the text: (§2) Control=DMSO treated. […] Arrow indicate bands that change after AZD1208 treatment.
(§3) A few targets from the microarray data were chosen, that being, ones that were affected by PIM kinase inhibition. The procedure was manual curation of data, followed by reference seq analysis of splice variants to determine avalibilty of sequence information. Initially, changes in splice variants of a known apoptotic regulator, MCL1 were validated. The smaller isoform of MCL1 is pro-apototic, while the longer isoform has anti-apototic functions.

MCL1 splice variants [6] = experiment: Taqman qRT-PCR for MCL1 splice variants in OCI-M1 cells; conditions: 1 μM, 6 hrs
From the text: as §2, §3

[7] = system: SR protein phosphorylation; experiment: Western blot using phospho-SR protein antibody; conditions: MOLM16 and EOL1 cells, versus DMSO treated controls
Experimental: MOLM16 and EOL1 cells were treated with AZD1208 or SRPIN340 for indicated concentration and time. Cells lysates from treated cells were used for western blot analysis.
Phosphorylation of splicing factors is known to play a role in regulation of splicing. Phosphorylation of splicing factors called serine arginine rich proteins (SR proteins) is known to regulate their function and localization. Serine arginine rich protein kinases (SRPK1 and SRPK2) phosphorylate these proteins and inhibition of SRPK activity using the small molecule modulator SRPIN340 leads to reduction in phosphorylation. The level of SR protein phosphorylation can be visualized using phospho-SR protein antibody. It was investigated to determine if PIM kinases regulate SRPK activity to indirectly lead to changes in splicing. […] Thus, it was concluded that the SRPK activity was not affected by PIM kinase inhibition.

CHAC1, NFYA and Cog5 = experiment: RT-PCR for splice variants of CHAC1, NFYA and Cog5 in MOLM16 cells; conditions: MOLM16, 1 μM, 6 hrs
From the text: as §2, §3

N[C@@H]1CCCN(c2c(/C=C3/SC(=O)NC3=O)cccc2-c2ccccc2)C1 [AZD1208, (5E)-5-[[2-[(3R)-3-aminopiperidin-1-yl]-3-phenylphenyl]methylidene]-1,3-thiazolidine-2,4-dione]
Effect (fraction of cells affected, FA) (MOLM16 cells [1]; MOLM16, SRPIN340 testing Trial 1, 0.03 μM): 0.396 | Effect (fraction of cells affected, FA) (MOLM16 cells [1]; MOLM16, SRPIN340 testing Trial 1, 0.06 μM): 0.521 | Effect (fraction of cells affected, FA) (MOLM16 cells [1]; MOLM16, SRPIN340 testing Trial 1, 0.12 μM): 0.628 | Effect (fraction of cells affected, FA) (MOLM16 cells [1]; MOLM16, Trial 1, 0.024 μM): 0.415 | Effect (fraction of cells affected, FA) (MOLM16 cells [1]; MOLM16, Trial 1, 0.048 μM): 0.471 | Effect (fraction of cells affected, FA) (MOLM16 cells [1]; MOLM16, Trial 1, 0.072 μM): 0.564 | Effect (fraction of cells affected, FA) (MOLM16 cells [1]; MOLM16, Trial 1, 0.096 μM): 0.594 | Effect (fraction of cells affected, FA) (MOLM16 cells [1]; MOLM16, Trial 1, 0.12 μM): 0.614 | Effect (fraction of cells affected, FA) (MOLM16 cells [1]; MOLM16, Trial 2, 0.024 μM): 0.337 | Effect (fraction of cells affected, FA) (MOLM16 cells [1]; MOLM16, Trial 2, 0.048 μM): 0.478 | Effect (fraction of cells affected, FA) (MOLM16 cells [1]; MOLM16, Trial 2, 0.072 μM): 0.534 | Effect (fraction of cells affected, FA) (MOLM16 cells [1]; MOLM16, Trial 2, 0.096 μM): 0.566 | Effect (fraction of cells affected, FA) (MOLM16 cells [1]; MOLM16, Trial 2, 0.12 μM): 0.622 | Effect (fraction of cells affected, FA) (MOLM16 cells [1]; MOLM16, Trial 3, 0.024 μM): 0.344 | Effect (fraction of cells affected, FA) (MOLM16 cells [1]; MOLM16, Trial 3, 0.048 μM): 0.455 | Effect (fraction of cells affected, FA) (MOLM16 cells [1]; MOLM16, Trial 3, 0.072 μM): 0.524 | Effect (fraction of cells affected, FA) (MOLM16 cells [1]; MOLM16, Trial 3, 0.096 μM): 0.554 | Effect (fraction of cells affected, FA) (MOLM16 cells [1]; MOLM16, Trial 3, 0.12 μM): 0.606 | Effect (fraction of cells affected, FA) (EOL1 cells [2]; EOL1, Trial 1, 0.024 μM): 0.395 | Effect (fraction of cells affected, FA) (EOL1 cells [2]; EOL1, Trial 1, 0.048 μM): 0.529 | Effect (fraction of cells affected, FA) (EOL1 cells [2]; EOL1, Trial 1, 0.072 μM): 0.675 | Effect (fraction of cells affected, FA) (EOL1 cells [2]; EOL1, Trial 1, 0.096 μM): 0.684 | Effect (fraction of cells affected, FA) (EOL1 cells [2]; EOL1, Trial 1, 0.12 μM): 0.680 | Effect (fraction of cells affected, FA) (EOL1 cells [2]; EOL1, Trial 2, 0.024 μM): 0.432 | Effect (fraction of cells affected, FA) (EOL1 cells [2]; EOL1, Trial 2, 0.048 μM): 0.587 | Effect (fraction of cells affected, FA) (EOL1 cells [2]; EOL1, Trial 2, 0.072 μM): 0.650 | Effect (fraction of cells affected, FA) (EOL1 cells [2]; EOL1, Trial 2, 0.096 μM): 0.683 | Effect (fraction of cells affected, FA) (EOL1 cells [2]; EOL1, Trial 2, 0.12 μM): 0.698 | Effect (fraction of cells affected, FA) (EOL1 cells [2]; EOL1, Trial 3, 0.024 μM): 0.373 | Effect (fraction of cells affected, FA) (EOL1 cells [2]; EOL1, Trial 3, 0.048 μM): 0.523 | Effect (fraction of cells affected, FA) (EOL1 cells [2]; EOL1, Trial 3, 0.072 μM): 0.600 | Effect (fraction of cells affected, FA) (EOL1 cells [2]; EOL1, Trial 3, 0.096 μM): 0.633 | Effect (fraction of cells affected, FA) (EOL1 cells [2]; EOL1, Trial 3, 0.12 μM): 0.642 | gene products with changes in splicing indices (MOLM16 cells [3]): > 5000 | splicing events with changes in splicing indices (MOLM16 cells [3]): > 10,000 | changes in splicing after PIM kinase inhibition (EOL1 cells [4]; EOL1, 1 μM, 6 hrs.): widespread changes were observed in splicing | overlapping splicing changes not in the same direction (EOL1 cells [4]; out of 2599 changes shared by MOLM16 and EOL1, 1 μM, 6 hours): 39 | splicing changes observed in similar probe selection regions (EOL1 cells [4]; overlap between MOLM16 and EOL1 lists, 1 μM, 6 hours): 2599 | level of shorter isoform of MCL1 (MCL1 splice variants [5]): specifically and significantly reduces | level of both MCL1 splice variants (MCL1 splice variants [6]): did not show any change | SR protein phosphorylation [7]: does not change SR protein phosphorylation | changes in splice variants of CHAC1, NFYA and Cog5 (CHAC1, NFYA and Cog5): in agreement with the microarray data
